Reference: ChEMBL document CHEMBL5252579, “Discovery of fluorinated 2‑Styryl 4(3H)-quinazolinone as potential therapeutic hit for oral cancer” (Bioorg Med Chem, 2023)
Active and inactive are the calls of the source. The calls are words filed in the database; no cut-off is given here.

Tests used:
CAL-27 [1] = experiment: Cytotoxicity against human CAL-27 cells assessed as reduction in cell viability incubated for 24 hrs by alamar blue assay; format: functional, cell-based; conditions: CAL-27, 24 h
[2] = Cytotoxicity against human normal oral epithelial cell assessed as reduction in cell viability incubated for 24 hrs by alamar blue assay; format: toxicity, cell-based; conditions: normal oral epithelial cells
CAL-27 [3] = experiment: Cytotoxicity against human CAL-27 cells assessed as reduction in cell viability incubated for 48 hrs by alamar blue assay; format: functional, cell-based; conditions: CAL-27, 48 h
CAL-27 [4] = experiment: Cytotoxicity against human CAL-27 cells assessed as reduction in cell viability incubated for 72 hrs by alamar blue assay; format: functional, cell-based; conditions: CAL-27, 72 h
CAL-27 [5] = experiment: Antimigratory activity against human CAL-27 cells assessed as reduction in number of colonies at 14 uM replaced with fresh medium for every 2 days for 10 days by crystal violet staining based inverted microscopic analysis (reference value: 234); format: functional; conditions: time 10 day
CAL-27 [6] = experiment: Antimigratory activity against human CAL-27 cells assessed as reduction in gap closure at 14 uM after 24 hrs by scratch wound healing assay (reference value: 65.2%); format: functional; set-up: scale not given: the % may be the effect or the level left
CAL-27 [7] = experiment: Antimigratory activity against human CAL-27 cells at 14 uM after 24 hrs by scratch wound healing assay; format: functional
CAL-27 [8] = experiment: Induction of cell cycle arrest in human CAL-27 cells assessed as accumulation at G1 phase at IC50 concentration incubated for 24 hrs by propidium iodide staining based flow cytometric analysis (reference value: 61.61 %); format: functional
CAL-27 [9] = experiment: Induction of cell cycle arrest in human CAL-27 cells assessed as decrease in cells at S phase at IC50 concentration incubated for 24 hrs by propidium iodide staining based flow cytometric analysis (reference value: 23.97 %); format: functional; set-up: scale not given: the % may be the effect or the level left
CAL-27 [10] = experiment: Induction of cell cycle arrest in human CAL-27 cells assessed as accumulation at G2/M phase at IC50 concentration incubated for 24 hrs by propidium iodide staining based flow cytometric analysis (reference value: […]); format: functional
[11] = Induction of cell cycle arrest in human normal oral epithelial cell assessed as accumulation at G1 phase at IC50 concentration incubated for 24 hrs by propidium iodide staining based flow cytometric analysis (reference value: 55.49 %); format: toxicity
[12] = Induction of cell cycle arrest in human normal oral epithelial cell assessed as reduction in cells at S phase at IC50 concentration incubated for 24 hrs by propidium iodide staining based flow cytometric analysis (reference value: 31.85 %); format: toxicity; set-up: scale not given: the % may be the effect or the level left
[13] = Induction of cell cycle arrest in human normal oral epithelial cell assessed as accumulation at G2/M phase at IC50 concentration incubated for 24 hrs by propidium iodide staining based flow cytometric analysis (reference value: 12.79 %); format: toxicity
CAL-27 [14] = experiment: Upregulation of TNF-alpha signaling NF-kappaB gene in human CAL-27 cells at IC50 concentration incubated for 24 hrs by RNA sequencing analysis; format: functional, cell-based
CAL-27 [15] = experiment: Upregulation of hypoxia related gene in human CAL-27 cells at IC50 concentration incubated for 24 hrs by RNA sequencing analysis; format: functional, cell-based
CAL-27 [16] = experiment: Upregulation of epithelial mesenchymal gene in human CAL-27 cells at IC50 concentration incubated for 24 hrs by RNA sequencing analysis; format: functional, cell-based
CAL-27 [17] = experiment: Upregulation of KRAS signaling gene in human CAL-27 cells at IC50 concentration incubated for 24 hrs by RNA sequencing analysis; format: functional, cell-based
CAL-27 [18] = experiment: Upregulation of p53 pathway in human CAL-27 cells at IC50 concentration incubated for 24 hrs by RNA sequencing analysis; format: functional, cell-based
CAL-27 [19] = experiment: Upregulation of myogenesis gene in human CAL-27 cells at IC50 concentration incubated for 24 hrs by RNA sequencing analysis; format: functional, cell-based
CAL-27 [20] = experiment: Upregulation of MTORC1 signaling gene in human CAL-27 cells at IC50 concentration incubated for 24 hrs by RNA sequencing analysis; format: functional, cell-based
CAL-27 [21] = experiment: Upregulation of glycolysis gene in human CAL-27 cells at IC50 concentration incubated for 24 hrs by RNA sequencing analysis; format: functional, cell-based
CAL-27 [22] = experiment: Upregulation of apoptosis gene in human CAL-27 cells at IC50 concentration incubated for 24 hrs by RNA sequencing analysis; format: functional, cell-based
CAL-27 [23] = experiment: Upregulation of IL2 STAT5 signaling gene in human CAL-27 cells at IC50 concentration incubated for 24 hrs by RNA sequencing analysis; format: functional, cell-based
CAL-27 [24] = experiment: Downregulation of E2F gene in human CAL-27 cells at IC50 concentration incubated for 24 hrs by RNA sequencing analysis; format: functional, cell-based
CAL-27 [25] = experiment: Downregulation of G2M checkpoint gene in human CAL-27 cells at IC50 concentration incubated for 24 hrs by RNA sequencing analysis; format: functional, cell-based
CAL-27 [26] = experiment: Downregulation of interferon gamma gene in human CAL-27 cells at IC50 concentration incubated for 24 hrs by RNA sequencing analysis; format: functional, cell-based
CAL-27 [27] = experiment: Downregulation of KRAS signaling gene in human CAL-27 cells at IC50 concentration incubated for 24 hrs by RNA sequencing analysis; format: functional, cell-based
CAL-27 [28] = experiment: Downregulation of mitotic spindle in human CAL-27 cells at IC50 concentration incubated for 24 hrs by RNA sequencing analysis; format: functional, cell-based
CAL-27 [29] = experiment: Downregulation of MTORC1 signaling gene in human CAL-27 cells at IC50 concentration incubated for 24 hrs by RNA sequencing analysis; format: functional, cell-based
CAL-27 [30] = experiment: Downregulation of MYC gene in human CAL-27 cells at IC50 concentration incubated for 24 hrs by RNA sequencing analysis; format: functional, cell-based
CAL-27 [31] = experiment: Downregulation of estrogen response gene in human CAL-27 cells at IC50 concentration incubated for 24 hrs by RNA sequencing analysis; format: functional, cell-based

For `O=c1[nH]c(/C=C/c2cccs2)nc2ccccc12`, the IC50 (CAL-27 [1]) was 11.3 µM and the IC50 at 24 h [2] was 16.2 µM.

In the case of `N#Cc1ccc(/C=C/c2nc3ccccc3c(=O)[nH]2)cc1`, the IC50 (CAL-27 [1]) is reported as 17 µM and the IC50 at 24 h [2] is reported as 25 µM.

Work on `C/C(=C\c1ccccc1)c1nc2ccccc2c(=O)[nH]1` yielded an IC50 (CAL-27 [1]) of 8.6 µM and an IC50 at 24 h [2] of 15 µM.

In the case of `O=c1[nH]c(/C=C/c2ccc([N+](=O)[O-])cc2)nc2ccccc12`, the IC50 (CAL-27 [1]) is reported as 16 µM and the IC50 at 24 h [2] is reported as 12 µM.

For `O=c1[nH]c(/C=C/c2ccc(F)cc2)nc2ccccc12`, the IC50 (CAL-27 [1]) was 12.9 µM, the IC50 at 24 h [2] was 41.4 µM and the IC50 (CAL-27 [3]) was 10 µM. It also gave an IC50 (CAL-27 [4]) of 8 µM, an Activity (CAL-27 [5]) of 158 and an Activity (CAL-27 [6]) of 36%. The Activity (CAL-27 [7]) was 64%, the Activity (CAL-27 [8]) was 76.12% and the Activity (CAL-27 [9]) was 9.76%. The Activity (CAL-27 [10]) was 14.24%, the Activity [11] was 55.99% and the Activity [12] was 30.19%. The Activity [13] was 13.79%, the Activity (CAL-27 [14]) was “Active” and the Activity (CAL-27 [15]) was “Active”. The Activity (CAL-27 [16]) was “Active”, the Activity (CAL-27 [17]) was “Active” and the Activity (CAL-27 [18]) was “Active”. The Activity (CAL-27 [19]) was “Active”, the Activity (CAL-27 [20]) was “Active” and the Activity (CAL-27 [21]) was “Active”. The Activity (CAL-27 [22]) was “Active”, the Activity (CAL-27 [23]) was “Active” and the Activity (CAL-27 [24]) was “Active”. The Activity (CAL-27 [25]) was “Active”, the Activity (CAL-27 [26]) was “Active” and the Activity (CAL-27 [27]) was “Active”. For the same compound, the Activity (CAL-27 [28]) was “Active”, the Activity (CAL-27 [29]) was “Active” and the Activity (CAL-27 [30]) was “Active”. The Activity (CAL-27 [31]) was “Active”.

`O=c1[nH]c(/C=C/c2ccc(Cl)cc2)nc2ccccc12` gave an IC50 (CAL-27 [1]) of 15.6 µM and an IC50 at 24 h [2] of 17 µM.

In the case of `COc1ccc(/C=C/c2nc3ccccc3c(=O)[nH]2)cc1`, the IC50 (CAL-27 [1]) is reported as 14 µM and the IC50 at 24 h [2] is reported as 13 µM.

`Cc1ccc(/C=C/c2nc(O)c3ccccc3n2)cc1` showed an IC50 (CAL-27 [1]) of 14.6 µM and an IC50 at 24 h [2] of 14 µM.

`O=c1[nH]c(/C=C/c2cccc(F)c2)nc2ccccc12` showed an IC50 (CAL-27 [1]) of 16 µM and an IC50 at 24 h [2] of 26 µM.

In the case of `O=c1[nH]c(/C=C/c2c(F)c(F)c(F)c(F)c2F)nc2ccccc12`, the IC50 (CAL-27 [1]) is reported as 13.6 µM and the IC50 at 24 h [2] is reported as 17 µM.

`CN(C)c1ccc(/C=C/c2nc(O)c3ccccc3n2)cc1` gave an IC50 (CAL-27 [1]) of 13.6 µM and an IC50 at 24 h [2] of 31 µM.
